Series [1] is described as follows: Colon pharmacokinetics in mice. Type of series: in vivo. To be noted: colon to plasma concentration ratio at 8 h time point, 30 mg/kg oral gavage in 0.5% methyl-cellulose, Male C57BL/6 Mouse; for Kp at 8 h: read-out: Mouse TD Colon/Plasma @ 8. How it is done:
Assay 2: Colon Pharmacokinetics in Mice
The test compound was formulated in 0.5% methyl-cellulose in water and dosed via oral gavage at 30 mg/kg to Male C57BL/6 Mouse. At various time points (typically 15 min, 30 min, 1, 2, 4, 6 and 8 h) post dosing, blood samples were removed via cardiac […] puncture and intact colons were excised from the […]. Blood samples were centrifuged at 1500 x g for 15 min to collect plasma. At the terminal time point each individual animal is anaesthetized, abdominal cavity is opened and from 2 cm below the caecum a 4 cm sample of the colon is dissected, cut open on the longitudinal axis and the solid contents removed by flushing with 2 mL of physiological fluid. The colon was further washed by putting it in 5 mL of physiological saline and shaken for 1 minute. The colon was pet dry weighed and transferred in 2 mL tubes. Colon will be weighted and homogenized with water by tissue weight (g) to water volume (mL) at ratio 1:3 before analysis. The actual concentration is the detected value multiplied by the dilution factor. A colon to plasma ratio was determined as the ratio of the colon cone, to the plasma cone, in pg hr/g, at 8 h time point.

The test system of series [2] is IL-1β production in PMA-differentiated THP-1 cells. The experiment in a line: IL-1β production in PMA-differentiated THP-1 cells stimulated with gramicidin (hTHP-1 assay, 2% fetal bovine serum). Type of series: cell-based, human. The procedure:
THP-1 cells were purchased from the American Type Culture Collection and sub-cultured according to instructions from the supplier. Cells were cultured in complete RPMI 1640 (containing 10% heat inactivated FBS, penicillin (100 units/ml) and streptomycin (100 μg/ml)), and maintained in log phase prior to experimental setup. Prior to the experiment, compounds were dissolved in dimethyl sulfoxide (DMSO) to generate a 30 mM stock. The compound stock was first pre-diluted in DMSO to 3, 0.34, 0.042 and 0.0083 mM intermediate concentrations and subsequently spotted using Echo550 liquid handler into an empty 384-well assay plate to achieve desired final concentration (e.g. 100, 33, 11, 3,7, 1.2, 0.41, 0.14, 0.046, 0.015, 0.0051, 0.0017 μM). DMSO was backfilled in the plate to achieve a final DMSO assay concentration of 0.37%. The plate was then sealed and stored at room temperature until required. THP-1 cells were treated with PMA (Phorbol 12-myristate 13-acetate) (20 ng/ml) for 16-18 hours. On the day of the experiment the media was removed and adherent cells were detached with trypsin for 5 minutes. Cells were then harvested, washed with complete RPMI 1640, spun down, and resuspended in RPMI 1640 (containing 2% heat inactivated FBS, penicillin (100 units/ml) and streptomycin (100 μg/ml). The cells were plated in the 384-well assay plate containing the spotted compounds at a density of 50,000 cells/well (final assay volume 50 μl). Ceils were incubated with compounds for 1 hour and then stimulated with gramicidin (5 μM) (Enzo) for 2 hours. Plates were then centrifuged at 340 g for 5 min. Cell free supernatant (40 μL) was collected using a 96-channel PlateMaster (Gilson) and the production of IL-1β was evaluated by HTRF (cisbio). The plates were incubated for 18 h at 4° C. and read using the preset HTRF program (donor emission at 620 nm, acceptor emission at 668 nm) of the SpectraMax i3x spectrophotometer (Molecular Devices, software SoftMax 6). A vehicle only control and a dose titration of CRID3 (100-0.0017 μM) were run concurrently with each experiment. Data was normalized to vehicle-treated samples (equivalent to 0% inhibition) and CRID3 at 100 μM (equivalent to 100% inhibition).
Procedure 2: IL-1β Production in PMA-Differentiated THP-1 Cells Stimulated with Gramicidin
THP-1 cells were purchased from the American Type Culture Collection and sub-cultured according to instructions from the supplier. Prior to experiments, cells were cultured in complete RPMI 1640 (containing 10% heat inactivated FBS, penicillin (100 units/ml) and streptomycin (100 μg/ml)), and maintained in log phase prior to experimental setup. Prior to the experiment THP-1 were treated with PMA (Phorbol 12-myristate 13-acetate) (20 ng/mi) for 16-18 hours. Compounds were dissolved in dimethyl sulfoxide (DMSO) to generate a 30 mM stock. On the day of the experiment the media was removed and adherent cells were detached with trypsin for 5 minutes. Cells were then harvested, washed with complete RPMI 1640, spun down, resuspended in RPMI 1640 (containing 2% heat inactivated FBS, penicillin (100 units/ml) and streptomycin (100 μg/ml), The cells were plated in a 384-well plate at a density of 50,000 cells/well (final assay volume 50 μl). Compounds were first dissolved in assay medium to obtain a 5× top concentration of 500 μM. 10 step dilutions (1:3) were then undertaken in assay medium containing 1.67% DMSO. 5× compound solutions were added to the culture medium to achieve desired final concentration (e.g. 100, 33, 11, 3.7, 1.2, 0.41, 0.14, 0.046, 0.015, 0.0051, 0.0017 μM). Final DMSO concentration was at 0.37%. Cells were incubated with compounds for 1 hour and then stimulated with gramicidin (5 μM) (Enzo) for 2 hours. Plates were then centrifuged at 340 g for 5 min. Cell free supernatant (40 μL) was collected using a 96-channel PlateMaster (Gilson) and the production of IL-1β was evaluated by HTRF (cisbio). […]

Where [3] appears, read: Homo sapiens, THP-1, average IC50, hTHP-1 assay containing 2% fetal bovine serum, class symbols.
The mark [4] stands for this setting: average IC50, hTHP-1 assay containing 2% fetal bovine serum, class symbols.
[5] abbreviates: Homo sapiens, THP-1, average IC50, hTHP-1 assay containing 2% fetal bovine serum, given as numeric bound.

Consider 32 compounds from patent publication US20220267276A1, “NLRP MODULATORS” (Novartis AG, priority 2018, published 2022).

pIC50: −log10 of the molar value.

For the compound `CC(C)c1cc(C#N)cc(C(C)C)c1NC(=O)NS(=O)(=O)c1sc(C(C)(C)O)nc1CO` [Compound 101], the Kp at 8 h in series [1] came to 3000. Moreover, in series [2] (setting [3]), the pIC50 (commonly the negative decadic logarithm of the IC50, by convention in mol/L) is 6.00 to 6.70.

For the compound `CC(C)c1cc(C#N)c(F)c(C(C)C)c1NC(=O)NS(=O)(=O)c1sc(C(C)(C)O)nc1CCO` [Compound 102], the Kp at 8 h in series [1] came out at 802. The compound further gave a pIC50 in series [2] (setting [3]) of 6.70 to 7.40.

`CNS(=O)(=O)c1ccc(S(=O)(=O)NC(=O)Nc2c3c(nc4c2CCC4)CCC3)c(CO)c1` [Compound 103] gave a pIC50 in series [2] (setting [3]) of 6.00 to 6.70.

In turn, `CC(C)c1cncc(C(C)C)c1NC(=O)NS(=O)(=O)c1sc(C(C)(C)O)nc1CO` [Compound 104] showed a pIC50 in series [2] (setting [3]) of 5.30 to 6.00.

Turning to `CNS(=O)(=O)c1ccc(S(=O)(=O)NC(=O)Nc2c(C(C)C)cncc2C(C)C)c(CO)c1` [Compound 105], the pIC50 in series [2] (setting [3]) is 5.30 to 6.00.

Compound `CC(C)c1cc2c(c(C(C)C)c1NC(=O)NS(=O)(=O)c1sc(C(C)(C)O)nc1CO)COC2` [Compound 106] showed a pIC50 in series [2] (setting [3]) of 6.00 to 6.70.

`CC(C)c1nc(-c2cccc(C(F)(F)F)c2)c(F)c(C(C)C)c1NC(=O)NS(=O)(=O)c1sc(C(C)(C)O)nc1CO[Si](C)(C)C(C)(C)C` [Compound 107] had a pIC50 in series [2] (Homo sapiens, THP-1) of 5.30 to 6.00.

`CNS(=O)(=O)c1ccc(S(=O)(=O)NC(=O)Nc2c3c(nc4c2CCC4)CCC3)c(OC)c1` [Compound 108] had a pIC50 in series [2] (setting [3]) of 5.30 to 6.00.

As for `CNS(=O)(=O)c1ccc(S(=O)(=O)NC(=O)Nc2c(C(C)C)cncc2C(C)C)cc1CO` [Compound 109], the pIC50 in series [2] (setting [3]) was 5.30 to 6.00.

Compound `CC(C)(O)c1nc(CO)c(S(=O)(=O)NC(=O)Nc2c3c(nc4c2CCC4)CCC3)s1` [Compound 111] had a pIC50 in series [2] (setting [3]) of 5.30 to 6.00.

With `CC(C)c1c(F)c(C#N)cc(C2CCOCC2)c1NC(=O)NS(=O)(=O)c1sc(C(C)(C)O)nc1CO` [Compound 112], the pIC50 in series [2] (setting [3]) was 5.30 to 6.00.

As for `CCC(C)c1cc(C#N)c(F)c(C(C)C)c1NC(=O)NS(=O)(=O)c1sc(C(C)(C)O)nc1CO` (stereo not shown) [Compound 113], the Kp at 8 h in series [1] stood at 4560. Also, the pIC50 in series [2] (setting [3]) is 6.00 to 6.70.

In the case of `CC(C)c1cc(C#N)cc(CCO)c1NC(=O)NS(=O)(=O)c1sc(C(C)(C)O)nc1CO` [Compound 114], the pIC50 in series [2] (setting [3]) was 4.52 to 5.30.

Consider `CNS(=O)(=O)c1ccc(S(=O)(=O)NC(=O)Nc2c(C(C)C)cc(C#N)cc2C(C)C)c(C(=O)OC)c1` [Compound 115], for which, in series [2] (setting [3]), the negative-log IC50 (pIC50) was 4.52 to 5.30.

In the case of `CNS(=O)(=O)c1ccc(S(=O)(=O)NC(=O)Nc2c(C(C)C)cc(C#N)cc2C(C)C)c(CO)c1` [Compound 116], the “Mouse TD Colon/Plasma @ 8” value in series [1] was 18,645. Besides, in series [2] (setting [3]), the pIC50 is 6.00 to 6.70.

In series [2] (setting [3]), `CNS(=O)(=O)c1ccc(S(=O)(=O)NC(=O)Nc2c(C(C)C)cc(C#N)c(F)c2C(C)C)c(O)c1` [Compound 117] had a pIC50 of 6.70 to 7.40.

As for `CNS(=O)(=O)c1ccc(S(=O)(=O)NC(=O)Nc2c(C(C)C)cc(C#N)c(F)c2C(C)C)c(OC)c1` [Compound 118], the Kp at 8 h in series [1] was 5950. Further, in series [2] (setting [4]), the pIC50 is 6.00 to 6.70.

The compound `CNS(=O)(=O)c1ccc(S(=O)(=O)NC(=O)Nc2c(C(C)C)cc(C#N)cc2C(C)C)c(O)c1` [Compound 119] gave a pIC50 in series [2] (setting [3]) of 6.70 to 7.40.

The compound `CNS(=O)(=O)c1ccc(S(=O)(=O)NC(=O)Nc2c(C(C)C)cc(C#N)c(F)c2C(C)C)c(OC)c1` [Compound 120] had a pIC50 in series [2] (setting [4]) of 6.70 to 7.40.

Consider `CC(C)c1cc(C#N)cc(C2CC2)c1NC(=O)NS(=O)(=O)c1sc(C(C)(C)O)nc1CO` [Compound 121], for which the pIC50 in series [2] (setting [3]) is 5.30 to 6.00.

Turning to `CC(C)(O)c1nc(CO)c(S(=O)(=O)NC(=O)Nc2c3c(c(C#N)c4c2CCC4)CCC3)s1` [Compound 122], in series [1], the Kp at 8 h was found to be 3530. The pIC50 in series [2] (setting [3]) is 5.30 to 6.00.

`CC(C)c1cc(C#N)c(F)c(C(C)C)c1NC(=O)NS(=O)(=O)c1sc(C(C)(C)O)nc1CO` [Compound 123]: the “Mouse TD Colon/Plasma @ 8” value in series [1] was 12,731. In series [2] (setting [3]), this compound had a pIC50 of 6.00 to 6.70.

Consider `CNS(=O)(=O)c1ccc(S(=O)(=O)NC(=O)Nc2c3c(cc4c2CCC4)CCC3)c(O)c1` [Compound 124], for which, in series [1], the Kp at 8 h was determined as 26. The compound also showed a pIC50 in series [2] (setting [3]) of 4.52 to 5.30.

In series [2] (setting [3]), `CC(C)(O)c1nc(CO)c(S(=O)(=O)NC(=O)Nc2c3c(nc4c2CCC4(C)C)CCC3)s1` [Compound 201] showed a pIC50 of 6.00 to 6.70.

Turning to `CC1CCc2c1nc1c(c2NC(=O)NS(=O)(=O)c2sc(C(C)(C)O)nc2CO)CCC1` (stereo not shown) [Compound 202], the negative-log IC50 (pIC50) in series [2] (setting [3]) is 6.00 to 6.70.

In turn, `CNS(=O)(=O)c1ccc(S(=O)(=O)NC(=O)Nc2c3c(nc4c2CCC4C)CCC3)c(CO)c1` (stereo not shown) [Compound 203] showed a pIC50 in series [2] (setting [3]) of 5.30 to 6.00.

Consider `CC(C)c1c(F)c(C#N)cc(C2CCOCC2)c1NC(=O)NS(=O)(=O)c1sc(C(C)(C)O)nc1CO` [Compound 204], for which the pIC50 in series [2] (setting [5]) was under 4.82.

`CC(C)c1cc(C#N)c(F)c(C(C)C)c1NC(=O)NS(=O)(=O)c1cc(C(C)(C)O)no1` [Compound 301] showed a pIC50 in series [2] (setting [3]) of 6.00 to 6.70.

With `Cc1cc(C(=O)NCCc2ccc(S(=O)(=O)NC(=O)Nc3c(C(C)C)cc(C#N)cc3C(C)C)cc2)no1` [Compound 302], the pIC50 in series [2] (setting [5]) is under 4.52.

For `Cc1cc(C(=O)NCCc2ccc(S(=O)(=O)NC(=O)Nc3c4c(cc5c3CCC5)CCC4)cc2)no1` [Compound 303], the pIC50 in series [2] (setting [5]) is under 4.52.

`COC(=O)c1sc2c(c1NC(=O)NS(=O)(=O)c1ncc(C(C)(C)O)s1)CCCC2` [Compound 304] showed a pIC50 in series [2] (setting [3]) of 4.52 to 5.30.

Take `O=C(CCCC[C@@H]1SC[C@@H]2NC(=O)N[C@@H]21)NCCCn1cc(CCC(=O)Nc2cccc(S(=O)(=O)NC(=O)Nc3c4c(cc5c3CCC5)CCC4)c2)nn1` [Compound 324]: in series [2] (setting [5]), the pIC50 is under 4.52.
